Experiments:
[1] = tested on: Staphylococcus aureus 25923; experiment: MIC against S. aureus 25923; format: cell-based
Experimental: The respective minimum inhibition concentration (MIC) of each COE molecule was determined using a broth microdilution method. Briefly, COEs were diluted via a 2-fold dilution series in 100 μL of either Muller Hinton Broth (MHB) for E. coli and S. aureus or Brain Heart Infusion Broth (BHI) for E. faecalis in a 96-well plate to achieve the desired final concentration. Subsequently, each well was inoculated with 100 μL of 1×10^6 colony forming units (CFU) mL^−1 of the respective microorganism in MHB for E. coli or BHI for E. faecalis to achieve an inoculum density of 5×10^5 CFU mL^−1. The plates were then incubated at 37° C. with shaking (200 rpm) for 18 hrs. […] The results were obtained in triplicate.
The antimicrobial effects of COE-D62N and COE-D82N were also tested on the Gram-positive Staphylococcus aureus 25923 and Methicillin-resistant Staphylococcus aureus(MRSA BAA-40), in comparison with vancomycin (FIG. 5b).

HepG2 cells = experiment: Toxicity on HepG2 cells; format: cell-based; conditions: Homo sapiens
[2] = Intrinsic clearance in human; format: in vitro ADME

SMILES: CN(C)CC[N+](C)(C)CCCCCCOc1ccc(/C=C/c2ccc(OCCCCCC[N+](C)(C)CCN(C)C)cc2)cc1 [COE-D62N]
- MIC [1]: 1 µg/mL
- IC50 (HepG2 cells): > 30 µM
- intrinsic clearance in human [2]: good

— patent publication US12157713B2, “Conjugated oligoelectrolytes as antimicrobial agents” (Nanyang Technological University, priority 2018, dated 2024)
